Experimental data taken from ChEMBL document CHEMBL1135965, “A novel dicyanotriterpenoid, 2-cyano-3,12-dioxooleana-1,9(11)-dien-28-onitrile, active at picomolar concentrations for inhibition of nitric oxide production” (Bioorg Med Chem Lett, 2002).
pIC50: −log10 of the molar value.

Organism: Mus musculus
Assay: Inhibitory activity against production of nitric oxide induced by interferon gamma in mouse macrophages
Format: functional, organism-based

How did the pIC50 turn out when `COC(=O)[C@]12CCC(C)(C)CC1C1C(=O)C=C3[C@@]4(C)C=C(C(=O)O)C(=O)C(C)(C)[C@@H]4CC[C@@]3(C)[C@]1(C)CC2` (stereo not given in full) was run?
Its pIC50 is 8.02.

`CC1(C)CC[C@]2(C(=O)N3CCC(N4CCCCC4)CC3)CC[C@]3(C)C(C(=O)C=C4[C@@]5(C)C=C(C#N)C(=O)C(C)(C)[C@@H]5CC[C@]43C)C2C1` (stereo not given in full) was tested. Which pIC50 did it give?
The pIC50 was 9.00.

With `CC1(C)CC[C@]2(C(=O)NN)CC[C@]3(C)C(C(=O)C=C4[C@@]5(C)C=C(C#N)C(=O)C(C)(C)[C@@H]5CC[C@]43C)C2C1` (stereo not given in full) as the compound, how does the pIC50 read?
The pIC50 was 9.59.

With `CCCNC(=O)[C@]12CCC(C)(C)CC1C1C(=O)C=C3[C@@]4(C)C=C(C#N)C(=O)C(C)(C)[C@@H]4CC[C@@]3(C)[C@]1(C)CC2` (stereo not given in full) as the compound, how does the pIC50 read?
The pIC50 was 8.82.

How did the pIC50 turn out when `CN(C)C(=O)[C@]12CCC(C)(C)CC1C1C(=O)C=C3[C@@]4(C)C=C(C#N)C(=O)C(C)(C)[C@@H]4CC[C@@]3(C)[C@]1(C)CC2` (stereo not given in full) was run?
The pIC50 was 8.81.

`CC1(C)CC[C@]2(C#N)CC[C@]3(C)C(C(=O)C=C4[C@@]5(C)C=C(C#N)C(=O)C(C)(C)[C@@H]5CC[C@]43C)C2C1` (stereo not given in full) [CDDO-CN] was tested. Which pIC50 did it give?
Its pIC50 is 11.46.

How did the pIC50 turn out when `CC1(C)CC[C@]2(C(=O)O)CC[C@]3(C)[C@H](C(=O)C=C4[C@@]5(C)C=C(C#N)C(=O)C(C)(C)[C@@H]5CC[C@]43C)[C@@H]2C1` [BARDOXOLONE] was run?
The pIC50 was 9.36.

`COC(=O)[C@]12CCC(C)(C)C[C@H]1[C@H]1C(=O)C=C3[C@@]4(C)C=C(C#N)C(=O)C(C)(C)[C@@H]4CC[C@@]3(C)[C@]1(C)CC2` [BARDOXOLONE METHYL] was tested. Which pIC50 did it give?
The pIC50 was 9.96.

How did the pIC50 turn out when `CCCCCCNC(=O)[C@]12CCC(C)(C)CC1C1C(=O)C=C3[C@@]4(C)C=C(C#N)C(=O)C(C)(C)[C@@H]4CC[C@@]3(C)[C@]1(C)CC2` (stereo not given in full) was run?
Its pIC50 is 7.83.

`CCCN(CCC)C(=O)[C@]12CCC(C)(C)CC1C1C(=O)C=C3[C@@]4(C)C=C(C#N)C(=O)C(C)(C)[C@@H]4CC[C@@]3(C)[C@]1(C)CC2` (stereo not given in full) was tested. Which pIC50 did it give?
The pIC50 was 7.48.

How did the pIC50 turn out when `CC1(C)CC[C@]2(C(=O)n3cccn3)CC[C@]3(C)C(C(=O)C=C4[C@@]5(C)C=C(C#N)C(=O)C(C)(C)[C@@H]5CC[C@]43C)C2C1` (stereo not given in full) was run?
The pIC50 was 7.92.

`CCCCOC(=O)[C@]12CCC(C)(C)CC1C1C(=O)C=C3[C@@]4(C)C=C(C#N)C(=O)C(C)(C)[C@@H]4CC[C@@]3(C)[C@]1(C)CC2` (stereo not given in full) was tested. Which pIC50 did it give?
Its pIC50 is 8.18.

With `CC(=O)OC[C@H]1O[C@@H](OC(=O)[C@]23CCC(C)(C)CC2C2C(=O)C=C4[C@@]5(C)C=C(C#N)C(=O)C(C)(C)[C@@H]5CC[C@@]4(C)[C@]2(C)CC3)[C@H](OC(C)=O)[C@H](OC(C)=O)[C@@H]1OC(C)=O` (stereo not given in full) as the compound, how does the pIC50 read?
Its pIC50 is 10.15.

`CC1(C)CC[C@]2(C(=O)N3CCCC3)CC[C@]3(C)C(C(=O)C=C4[C@@]5(C)C=C(C#N)C(=O)C(C)(C)[C@@H]5CC[C@]43C)C2C1` (stereo not given in full) was tested. Which pIC50 did it give?
The pIC50 was 9.10.

With `CC1(C)CC[C@]2(C(=O)N3CCCCC3)CC[C@]3(C)C(C(=O)C=C4[C@@]5(C)C=C(C#N)C(=O)C(C)(C)[C@@H]5CC[C@]43C)C2C1` (stereo not given in full) as the compound, how does the pIC50 read?
Its pIC50 is 9.02.

How did the pIC50 turn out when `CCOC(=O)[C@]12CCC(C)(C)CC1C1C(=O)C=C3[C@@]4(C)C=C(C(=O)O)C(=O)C(C)(C)[C@@H]4CC[C@@]3(C)[C@]1(C)CC2` (stereo not given in full) was run?
Its pIC50 is 8.10.

How did the pIC50 turn out when `CC1(C)CC[C@]2(C(=O)n3ccnc3)CC[C@]3(C)[C@H](C(=O)C=C4[C@@]5(C)C=C(C#N)C(=O)C(C)(C)[C@@H]5CC[C@]43C)[C@@H]2C1` was run?
Its pIC50 is 10.85.

How did the pIC50 turn out when `CC1(C)CC[C@]2(C(=O)OCc3ccccc3)CC[C@]3(C)C(C(=O)C=C4[C@@]5(C)C=C(C#N)C(=O)C(C)(C)[C@@H]5CC[C@]43C)C2C1` (stereo not given in full) was run?
Its pIC50 is 8.36.

How did the pIC50 turn out when `CC1(C)CC[C@]2(C#N)CC[C@]3(C)C(C(=O)C=C4[C@@]5(C)C=C(C(=O)O)C(=O)C(C)(C)[C@@H]5CC[C@]43C)C2C1` (stereo not given in full) was run?
The pIC50 was 8.77.

How did the pIC50 turn out when `CC1(C)CC[C@]2(C(=O)Nc3ccccc3)CC[C@]3(C)C(C(=O)C=C4[C@@]5(C)C=C(C#N)C(=O)C(C)(C)[C@@H]5CC[C@]43C)C2C1` (stereo not given in full) was run?
Its pIC50 is 7.54.

`CC1(C)CC[C@]2(C(=O)O)CC[C@]3(C)C(=CC[C@@H]4[C@@]5(C)CC[C@H](O)C(C)(C)[C@@H]5CC[C@]43C)[C@@H]2C1` [OLEANOLIC_ACID] was tested. Which pIC50 did it give?
The pIC50 was < 4.40.

With `CC1(C)CC[C@]2(C(=O)OCC3CC3)CC[C@]3(C)C(C(=O)C=C4[C@@]5(C)C=C(C#N)C(=O)C(C)(C)[C@@H]5CC[C@]43C)C2C1` (stereo not given in full) as the compound, how does the pIC50 read?
The pIC50 was 8.35.

With `CCCCCCCCOC(=O)[C@]12CCC(C)(C)CC1C1C(=O)C=C3[C@@]4(C)C=C(C#N)C(=O)C(C)(C)[C@@H]4CC[C@@]3(C)[C@]1(C)CC2` (stereo not given in full) as the compound, how does the pIC50 read?
Its pIC50 is 7.22.

How did the pIC50 turn out when `CC1(C)CC[C@]2(C(=O)N3CCOCC3)CC[C@]3(C)C(C(=O)C=C4[C@@]5(C)C=C(C#N)C(=O)C(C)(C)[C@@H]5CC[C@]43C)C2C1` (stereo not given in full) was run?
The pIC50 was 8.62.

With `C=CCOC(=O)[C@]12CCC(C)(C)CC1C1C(=O)C=C3[C@@]4(C)C=C(C#N)C(=O)C(C)(C)[C@@H]4CC[C@@]3(C)[C@]1(C)CC2` (stereo not given in full) as the compound, how does the pIC50 read?
Its pIC50 is 8.88.

`CC1(C)CC[C@]2(C(N)=O)CC[C@]3(C)C(C(=O)C=C4[C@@]5(C)C=C(C#N)C(=O)C(C)(C)[C@@H]5CC[C@]43C)C2C1` (stereo not given in full) was tested. Which pIC50 did it give?
Its pIC50 is 10.01.

How did the pIC50 turn out when `CCOC(=O)[C@]12CCC(C)(C)CC1C1C(=O)C=C3[C@@]4(C)C=C(C#N)C(=O)C(C)(C)[C@@H]4CC[C@@]3(C)[C@]1(C)CC2` (stereo not given in full) was run?
The pIC50 was 9.10.

With `CNC(=O)[C@]12CCC(C)(C)CC1C1C(=O)C=C3[C@@]4(C)C=C(C#N)C(=O)C(C)(C)[C@@H]4CC[C@@]3(C)[C@]1(C)CC2` (stereo not given in full) as the compound, how does the pIC50 read?
The pIC50 was 9.24.

How did the pIC50 turn out when `CC1(C)CC[C@]2(C(=O)O[C@@H]3O[C@H](CO)[C@@H](O)[C@H](O)[C@H]3O)CC[C@]3(C)C(C(=O)C=C4[C@@]5(C)C=C(C#N)C(=O)C(C)(C)[C@@H]5CC[C@]43C)C2C1` (stereo not given in full) was run?
Its pIC50 is 8.00.

With `CC1(C)CC[C@]2(C(=O)NCc3ccccc3)CC[C@]3(C)C(C(=O)C=C4[C@@]5(C)C=C(C#N)C(=O)C(C)(C)[C@@H]5CC[C@]43C)C2C1` (stereo not given in full) as the compound, how does the pIC50 read?
The pIC50 was 8.04.
